# Several values for one entry are separate records, joined by “and”; a condition that tells them apart may be missing. Equal entries are not always repeated.
# Legend:
# [1] = test system: Staphylococcus aureus; assay: Antibacterial activity against Staphylococcus aureus ATCC 25923 incubated for 18 hrs by agar dilution method; type: functional
# [2] = test system: Mus musculus; assay: Analgesic activity in albino mouse assessed reduction in acetic acid-induced abdominal writhing by measuring writing reflex at 10 mg/kg, ip pretreated for 1 hr followed by acetic acid challenge and measured starting 5 mins post acetic acid challenge for 10 mins (reference value: 42.4 +/- 1.02); type: functional; conditions: time 75 min, 1.25 h
# [3] = test system: Mus musculus; assay: Analgesic activity in albino mouse assessed as forepaw licking/jumping latency time at 10 mg/kg, ip measured after 60 mins by hot plate test (reference value: 3.42 +/- 0.03 sec); type: functional; conditions: 1 h
# [4] = test system: Salmonella typhimurium; assay: Antibacterial activity against Salmonella typhimurium ATCC 19430 incubated for 18 hrs by agar dilution assay; type: functional, Salmonella enterica subsp. enterica serovar Typhimurium; conditions: Salmonella enterica
# [5] = test system: Rattus norvegicus; assay: Antiinflammatory activity in Wistar rat model of carrageenan-induced paw edema assessed as reduction in thickness of paw edema at 10 mg/kg, ip pretreated for 1 hr followed by carrageenan challenge and measured after 4 hrs (reference value: 1.40 +/-0.10 mm); type: functional; conditions: time 5 hrs
# [6] = test system: Rattus norvegicus; assay: Anti-inflammatory activity in Wistar rat assessed as inhibition of carrageenan-induced paw edema at 10 mg/kg, ip pretreated for 1 hr followed by carrageenan challenge and measured after 2 hr relative to control (reference value: 0.00 +/-0.03 %); type: functional; conditions: time 3 hrs
# [7] = test system: Mus musculus; assay: Analgesic activity in albino mouse assessed as protection at 10 mg/kg, ip measured after 30 mins by hot plate test (reference value: 0 %); type: functional; conditions: 0.5 h
# [8] = test system: Mus musculus; assay: Analgesic activity in albino mouse assessed protection against acetic acid-induced abdominal writhing at 10 mg/kg, ip pretreated for 1 hr followed by acetic acid challenge and measured starting 5 mins post acetic acid challenge for 10 mins relative to control (reference value: 0 %); type: functional; conditions: time 75 min, 1.25 h
# [9] = test system: Peritoneal macrophage; assay: Antiinflammatory activity in […] mouse Peritoneal macrophages assessed as inhibition of LPS-induced NO production at 10 uM preincubated for 1 hr followed by LPS stimulation measured after 24 hrs by Griess method relative to control (reference value: 0.0 %); type: functional; parameters: scale not given: the % may be the effect or the level left; conditions: time 25 hrs
# [10] = test system: Mus musculus; assay: Analgesic activity in albino mouse assessed as protection at 10 mg/kg, ip measured after 60 mins by hot plate test (reference value: 0 %); type: functional; conditions: 1 h
# [11] = test system: Streptococcus pyogenes; assay: Antibacterial activity against Streptococcus pyogenes ATCC 19615 incubated for 18 hrs by agar dilution method; type: functional
# [12] = Ulcerogenic activity in fasted albino mouse assessed as ulcer index in gastric mucosa at 10 mg/kg, po for 3 days (reference value: 0); type: toxicity, organism-based; conditions: in vivo, 72 h, time 3 day
# [13] = test system: Mus musculus; assay: Analgesic activity in albino mouse assessed as forepaw licking/jumping latency time at 10 mg/kg, ip measured after 30 mins by hot plate test (reference value: 5.02 +/- 0.09 sec); type: functional; conditions: 0.5 h
# [14] = test system: Rattus norvegicus; assay: Anti-inflammatory activity in Wistar rat assessed as inhibition of carrageenan-induced paw edema at 10 mg/kg, ip pretreated for 1 hr followed by carrageenan challenge and measured after 4 hr relative to control (reference value: 0.00 +/-0.4 %); type: functional; conditions: time 5 hrs
# [15] = test system: Mus musculus; assay: Analgesic activity in albino mouse assessed as forepaw licking/jumping latency time at 10 mg/kg, ip measured after 90 mins by hot plate test (reference value: 2.72 +/- 0.01 sec); type: functional; conditions: 1.5 h
# [16] = Ulcerogenic activity in fasted albino mouse assessed as average severity of ulcers in gastric mucosa at 10 mg/kg, po for 3 days (reference value: 0); type: toxicity, organism-based; conditions: in vivo, 72 h, time 3 day
# [17] = test system: Rattus norvegicus; assay: Anti-inflammatory activity in Wistar rat assessed as inhibition of carrageenan-induced paw edema at 10 mg/kg, ip pretreated for 1 hr followed by carrageenan challenge and measured after 24 hr relative to control (reference value: 0.00 +/-0.3 %); type: functional; conditions: time 25 hrs
# [18] = test system: Rattus norvegicus; assay: Anti-inflammatory activity in Wistar rat assessed as inhibition of carrageenan-induced paw edema at 10 mg/kg, ip pretreated for 1 hr followed by carrageenan challenge and measured after 4 hr relative to indomethacin; type: functional; conditions: time 5 hrs
# [19] = Ulcerogenic activity in fasted albino mouse assessed as incidence of gastric ulceration at 10 mg/kg, po for 3 days (reference value: 0 %); type: toxicity, organism-based; conditions: in vivo, 72 h, time 3 day
# [20] = test system: Mus musculus; assay: Analgesic activity in albino mouse assessed as protection at 10 mg/kg, ip measured after 120 mins by hot plate test relative to indomethacin; type: functional; conditions: 2 h
# [21] = test system: Rattus norvegicus; assay: Antiinflammatory activity in Wistar rat model of carrageenan-induced paw edema assessed as reduction in thickness of paw edema at 10 mg/kg, ip pretreated for 1 hr followed by carrageenan challenge and measured after 3 hrs (reference value: 1.79 +/-0.07 mm); type: functional; conditions: time 4 hrs
# [22] = test system: Rattus norvegicus; assay: Antiinflammatory activity in Wistar rat model of carrageenan-induced paw edema assessed as reduction in thickness of paw edema at 10 mg/kg, ip pretreated for 1 hr followed by carrageenan challenge and measured after 24 hrs (reference value: 0.83 +/-0.08 mm); type: functional; conditions: time 25 hrs
# [23] = test system: Rattus norvegicus; assay: Anti-inflammatory activity in Wistar rat assessed as inhibition of carrageenan-induced paw edema at 10 mg/kg, ip pretreated for 1 hr followed by carrageenan challenge and measured after 3 hr relative to control (reference value: 0.00 +/-0.1 %); type: functional; conditions: time 4 hrs
# [24] = test system: Rattus norvegicus; assay: Anti-inflammatory activity in Wistar rat assessed as inhibition of carrageenan-induced paw edema at 10 mg/kg, ip pretreated for 1 hr followed by carrageenan challenge and measured after 1 hr relative to control (reference value: 0.00 +/-0.02 %); type: functional; conditions: time 2 hrs
# [25] = test system: Rattus norvegicus; assay: Antiinflammatory activity in Wistar rat model of carrageenan-induced paw edema assessed as reduction in thickness of paw edema at 10 mg/kg, ip pretreated for 1 hr followed by carrageenan challenge and measured after 1 hr (reference value: 2.41 +/-0.05 mm); type: functional; conditions: time 1 hr after carrageenan
# [26] = test system: Rattus norvegicus; assay: Antiinflammatory activity in Wistar rat model of carrageenan-induced paw edema assessed as reduction in thickness of paw edema at 10 mg/kg, ip pretreated for 1 hr followed by carrageenan challenge and measured after 2 hrs (reference value: 2.06 +/-0.09 mm); type: functional; conditions: time 3 hrs
# [27] = Ulcerogenic activity in fasted albino mouse assessed as average number of ulcers in gastric mucosa at 10 mg/kg, po for 3 days (reference value: 0); type: toxicity, organism-based; conditions: in vivo, 72 h, time 3 day
# [28] = test system: Mus musculus; assay: Analgesic activity in albino mouse assessed protection against acetic acid-induced abdominal writhing at 10 mg/kg, ip pretreated for 1 hr followed by acetic acid challenge and measured starting 5 mins post acetic acid challenge for 10 mins relative to indomethacin; type: functional; conditions: time 75 min, 1.25 h
# [29] = test system: Pseudomonas aeruginosa; assay: Antibacterial activity against Pseudomonas aeruginosa ATCC 27853 incubated for 18 hrs by agar dilution assay; type: functional
# [30] = test system: Splenocyte; assay: Immunomodulatory activity in Swiss albino mouse splenocytes assessed as cell viability at 10 uM by measuring stimulation index incubated for 72 hrs in presence of mitogenic stimulus phytohaemagglutinin by MTT assay (reference value: 1.00 +/- 0.24); type: functional
# [31] = Toxicity in albino mouse assessed as induction of toxic symptoms at 50 to 100 mg/kg, ip measured after 24 hrs; type: organism-based; conditions: in vivo, dose 50-100 mg/kg
# [32] = test system: Mus musculus; assay: Analgesic activity in albino mouse assessed as protection at 10 mg/kg, ip measured after 120 mins by hot plate test (reference value: 0 %); type: functional; conditions: 2 h
# [33] = test system: Splenocyte; assay: Immunomodulatory activity in Swiss albino mouse splenocytes assessed as cell viability at 10 uM by measuring inhibition of stimulation index incubated for 72 hrs in presence of mitogenic stimulus phytohaemagglutinin by MTT assay relative to indomethacin; type: functional; conditions: read-out: Activity
# [34] = test system: Mus musculus; assay: Analgesic activity in albino mouse assessed as forepaw licking/jumping latency time at 10 mg/kg, ip measured after 120 mins by hot plate test (reference value: 2.62 +/- 0.06 sec); type: functional; conditions: 2 h
# [35] = test system: Candida albicans; assay: Antifungal activity against Candida albicans incubated for 18 to 24 hrs by CLSI method; type: functional; conditions: time 18-24 hrs
# [36] = test system: Peritoneal macrophage; assay: Antiinflammatory activity in […] mouse Peritoneal macrophages assessed as reduction in LPS-induced NO production by measuring reduction in stimulation index at 10 uM preincubated for 1 hr followed by LPS stimulation measured after 24 hrs by Griess method (reference value: 27.31 +/- 2.56 uM); type: functional; conditions: time 25 hrs
# [37] = test system: Mus musculus; assay: Analgesic activity in albino mouse assessed as protection at 10 mg/kg, ip measured after 90 mins by hot plate test (reference value: 0 %); type: functional; conditions: 1.5 h
smiles,measurement,setting,value
COc1cc(/C=C/C(=O)/C=C(O)/C=C/c2ccc(OC(=O)[C@H](CCSC)NC(=O)OCc3ccccc3)c(OC)c2)ccc1OC(=O)[C@H](CCSC)NC(=O)OCc1ccccc1,MIC,[1],0.125 µg/mL and 0.139 µM
same,Activity,[2],16.5
same,Time,[3],3.94 s
same,MIC,[4],0.125 µg/mL and 0.139 µM
same,Activity,[5],0.17 mm
same,inhibition in vivo at 10 mg/kg,[6],80%
same,Activity,[7],6%
same,Activity,[8],61.1%
same,Activity,[9],44.44%
same,Activity,[10],15.2%
same,MIC,[11],0.125 µg/mL and 0.139 µM
same,UI,[12],3.99
same,Time,[13],5.32 s
same,inhibition in vivo at 10 mg/kg,[14],88%
same,Time,[15],3.66 s
same,Activity,[16],0.33
same,inhibition in vivo at 10 mg/kg,[17],94%
same,inhibition in vivo at 10 mg/kg,[18],101%
same,Activity,[19],3.33%
same,Activity,[20],51%
same,Activity,[21],0.25 mm
same,Activity,[22],0.05 mm
same,inhibition in vivo at 10 mg/kg,[23],86%
same,inhibition in vivo at 10 mg/kg,[24],76%
same,Activity,[25],0.58 mm
same,Activity,[26],0.41 mm
same,Activity,[27],0.33
same,Activity,[28],9.2%
same,MIC,[29],0.125 µg/mL and 0.139 µM
same,Activity_index,[30],1.22
same,Activity,[31],Non-Toxic
same,Activity,[32],21.4%
same,viability at 10 µM,[33],99.3%
same,Time,[34],3.18 s
same,MIC,[35],2 µg/mL and 2.23 µM
same,Activity,[36],15.17 µM
same,Activity,[37],34.6%
COc1cc(/C=C/C(=O)/C=C(O)/C=C/c2ccc(OC(=O)[C@H](CCSC)NC(=O)OCC3c4ccccc4-c4ccccc43)c(OC)c2)ccc1OC(=O)[C@H](CCSC)NC(=O)OCC1c2ccccc2-c2ccccc21,MIC,[1],0.25 µg/mL and 0.233 µM
same,Activity,[2],16.2
same,Time,[3],5.02 s
same,MIC,[4],2 µg/mL and 1.86 µM
same,Activity,[5],0.03 mm
same,inhibition in vivo at 10 mg/kg,[6],73%
same,Activity,[7],35.9%
same,Activity,[8],61.8%
same,Activity,[9],47.91%
same,Activity,[10],46.8%
same,MIC,[11],0.125 µg/mL and 0.116 µM
same,UI,[12],0
same,Time,[13],6.82 s
same,inhibition in vivo at 10 mg/kg,[14],98%
same,Time,[15],3.38 s
same,Activity,[16],0
same,inhibition in vivo at 10 mg/kg,[17],23%
same,inhibition in vivo at 10 mg/kg,[18],113%
same,Activity,[19],0%
same,Activity,[20],32.6%
same,Activity,[21],0.45 mm
same,Activity,[22],0.64 mm
same,inhibition in vivo at 10 mg/kg,[23],75%
same,inhibition in vivo at 10 mg/kg,[24],46%
same,Activity,[25],1.3 mm
same,Activity,[26],0.56 mm
same,Activity,[27],0
same,Activity,[28],100.3%
same,MIC,[29],2 µg/mL and 1.86 µM
same,Activity_index,[30],1.07
same,Activity,[31],Non-Toxic
same,Activity,[32],13.7%
same,viability at 10 µM,[33],113%
same,Time,[34],2.98 s
same,MIC,[35],0.5 µg/mL and 0.465 µM
same,Activity,[36],14.23 µM
same,Activity,[37],24.3%

# Source: ChEMBL document CHEMBL4765295, “Synthesis, pharmacological profile and 2D-QSAR studies of curcumin-amino acid conjugates as potential drug candidates” (Eur J Med Chem, 2020)
